Reference: patent publication US20100099561A1, “HETEROBICYCLIC ALKYLTHIO-BRIDGED ISOXAZOLINES” (E.I. DU PONT DE NEMOURS AND COMPANY, priority 2008, published 2010)

Assays:
Assay type in all cases: in vivo
[1] = test system: pigweed (Amaranthus retroflexus); experiment: Test A preemergence, pigweed; conditions: 0 to 100 scale (0 no effect, 100 complete control)
How it was run: (§1)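 Each compound, in a non-phytotoxic solvent mixture with surfactant, is applied to soil at planting and, concurrently, to young one- to two-leaf plants. After approximately ten greenhouse days, visual response is rated 0 (no effect) to 100 (complete control) against untreated controls.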

[2] = test system: velvetleaf (Abutilon theophrasti); experiment: Test A preemergence, velvetleaf; conditions: 0 to 100 scale (0 no effect, 100 complete control)
How it was run: as §1

[3] = test system: barnyardgrass (Echinochloa crus-galli); experiment: Test A postemergence, barnyardgrass; conditions: 0 to 100 scale (0 no effect, 100 complete control)
How it was run: as §1

[4] = test system: wheat (Triticum aestivum); experiment: Test A postemergence, wheat; conditions: 0 to 100 scale (0 no effect, 100 complete control)
How it was run: as §1

corn (Zea mays) [5] = experiment: Test A postemergence, corn; conditions: 0 to 100 scale (0 no effect, 100 complete control)
How it was run: as §1

[6] = test system: blackgrass (Alopecurus myosuroides); experiment: Test B preemergence, blackgrass; conditions: scale 0 to 100
Description: (§2) Seeds of plant species selected from blackgrass (Alopecurus myosuroides), downy bromegrass (Bromus tectorum), green foxtail (Setaria viridis), Italian ryegrass (Lolium multiflorum), wheat (Triticum aestivum), wild oat (Avena fatua), catchweed bedstraw (Galium aparine), bermudagrass (Cynodon dactylon), Surinam grass (Brachiaria decumbens), cocklebur (Xanthium strumarium), corn (Zea mays), large crabgrass (Digitaria sanguinalis), woolly cupgrass (Eriochloa villosa), giant foxtail (Setaria faberii), goosegrass (Eleusine indica), johnsongrass (Sorghum halepense), kochia (Kochia scoparia), lambsquarters (Chenopodium album), morningglory (Ipomoea coccinea), nightshade (eastern black nightshade, Solanum ptycanthum), yellow nutsedge (Cyperus esculentus), pigweed (Amaranthus retroflexus), ragweed (common ragweed, Ambrosia elatior), soybean (Glycine max), sunflower (common oilseed sunflower, Helianthus annuus), Russian thistle (Salsola kali), and velvetleaf (Abutilon theophrasti) were planted into a blend of loam soil and sand and treated preemergence with test compounds formulated in a non-phytotoxic solvent mixture which included a surfactant. Treated plants and controls were maintained in a greenhouse for 13 to 15 days, after which time all species were compared to controls and visually evaluated. Plant response ratings, summarized in Table B, are based on a scale of 0 to 100 where 0 is no effect and 100 is complete control. A dash (-) response means no test result.

[7] = test system: green foxtail (Setaria viridis); experiment: Test B preemergence, green foxtail; conditions: scale 0 to 100
Description: as §2

wild oat (Avena fatua) = experiment: Test B preemergence, wild oat; conditions: scale 0 to 100
Description: as §2

[8] = test system: catchweed bedstraw (Galium aparine); experiment: Test B preemergence, catchweed bedstraw; conditions: scale 0 to 100
Description: as §2

[9] = test system: bermudagrass (Cynodon dactylon); experiment: Test B preemergence, bermudagrass; conditions: scale 0 to 100
Description: as §2

corn (Zea mays) [10] = experiment: Test B preemergence, corn; conditions: scale 0 to 100
Description: as §2

[11] = test system: large crabgrass (Digitaria sanguinalis); experiment: Test B preemergence, large crabgrass; conditions: scale 0 to 100
Description: as §2

[12] = test system: woolly cupgrass (Eriochloa villosa); experiment: Test B preemergence, woolly cupgrass; conditions: scale 0 to 100
Description: as §2

[13] = test system: giant foxtail (Setaria faberii); experiment: Test B preemergence, giant foxtail; conditions: scale 0 to 100
Description: as §2

[14] = test system: johnsongrass (Sorghum halepense); experiment: Test B preemergence, johnsongrass; conditions: scale 0 to 100
Description: as §2

[15] = test system: morningglory (Ipomoea coccinea); experiment: Test B preemergence, morningglory; conditions: scale 0 to 100
Description: as §2

[16] = test system: nightshade (eastern black nightshade, Solanum ptycanthum); experiment: Test B preemergence, nightshade; conditions: scale 0 to 100
Description: as §2

[17] = test system: yellow nutsedge (Cyperus esculentus); experiment: Test B preemergence, yellow nutsedge; conditions: scale 0 to 100
Description: as §2

[18] = test system: umbrella sedge (Cyperus difformis); experiment: Test B flooded paddy test, umbrella sedge; conditions: Flood, scale 0 to 100
How it was run: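 Paddy-water application to 2-leaf plants in pots held under 3 cm of flooding; response is a 0–100 visual control rating against controls after 13 to 15 days, and a dash marks a missing result.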

CC1(C)CC(S(=O)(=O)Cc2c(C(F)(F)F)nc3n(c2=O)CCS3)=NO1 [Compound 6]
50: Plant response rating, Blackgrass ([6]; 16 g ai/ha) | Plant response rating, Foxtail, Green ([7]; 16 g ai/ha) | Plant response rating, Foxtail, Green ([7]; 31 g ai/ha) | Plant response rating, Foxtail, Green ([7]; 62 g ai/ha) | Plant response rating, Galium ([8]; 31 g ai/ha) | Plant response rating, Galium ([8]; 62 g ai/ha)
98: Plant response rating, Cupgrass, Woolly ([12]; 31 g ai/ha) | Plant response rating, Cupgrass, Woolly ([12]; 62 g ai/ha) | Plant response rating, Johnsongrass ([14]; 62 g ai/ha) | Plant response rating, Nightshade ([16]; 125 g ai/ha)
70: Plant response rating, Barnyardgrass ([3]; 125 g ai/ha) | Plant response rating, Johnsongrass ([14]; 31 g ai/ha)
30: Plant response rating, Wheat ([4]; 500 g ai/ha) | Plant response rating, Oat, Wild (wild oat (Avena fatua); 16 g ai/ha)
60: Plant response rating, Pigweed ([1]; 125 g ai/ha) | Plant response rating, Oat, Wild (wild oat (Avena fatua); 62 g ai/ha) | Plant response rating, Oat, Wild (wild oat (Avena fatua); 125 g ai/ha) | Plant response rating, Cupgrass, Woolly ([12]; 16 g ai/ha)
45: Plant response rating, Oat, Wild (wild oat (Avena fatua); 31 g ai/ha) | Plant response rating, Johnsongrass ([14]; 16 g ai/ha) | Plant response rating, Nightshade ([16]; 31 g ai/ha) | Plant response rating, Nutsedge, Yellow ([17]; 125 g ai/ha)
75: Plant response rating, Sedge, Umbrella ([18]; 250 g ai/ha)
80: Plant response rating, Velvetleaf ([2]; 500 g ai/ha) | Plant response rating, Barnyardgrass ([3]; 500 g ai/ha) | Plant response rating, Blackgrass ([6]; 31 g ai/ha)
20: Plant response rating, Wheat ([4]; 125 g ai/ha)
95: Plant response rating, Blackgrass ([6]; 62 g ai/ha) | Plant response rating, Blackgrass ([6]; 125 g ai/ha) | Plant response rating, Crabgrass, Large ([11]; 16 g ai/ha) | Plant response rating, Foxtail, Giant ([13]; 31 g ai/ha) | Plant response rating, Nightshade ([16]; 62 g ai/ha)
0: Plant response rating, Velvetleaf ([2]; 125 g ai/ha) | Plant response rating, Corn (corn (Zea mays) [5]; 125 g ai/ha) | Plant response rating, Corn (corn (Zea mays) [5]; 500 g ai/ha) | Plant response rating, Galium ([8]; 16 g ai/ha) | Plant response rating, Corn (corn (Zea mays) [10]; 16 g ai/ha) | Plant response rating, Corn (corn (Zea mays) [10]; 31 g ai/ha) | Plant response rating, Corn (corn (Zea mays) [10]; 62 g ai/ha) | Plant response rating, Corn (corn (Zea mays) [10]; 125 g ai/ha) | Plant response rating, Foxtail, Giant ([13]; 16 g ai/ha) | Plant response rating, Morningglory ([15]; 16 g ai/ha) | Plant response rating, Morningglory ([15]; 31 g ai/ha) | Plant response rating, Morningglory ([15]; 62 g ai/ha) | Plant response rating, Morningglory ([15]; 125 g ai/ha) | Plant response rating, Nightshade ([16]; 16 g ai/ha) | Plant response rating, Nutsedge, Yellow ([17]; 16 g ai/ha) | Plant response rating, Nutsedge, Yellow ([17]; 31 g ai/ha) | Plant response rating, Nutsedge, Yellow ([17]; 62 g ai/ha) | Plant response rating, Sedge, Umbrella ([18]; 62 g ai/ha)
100: Plant response rating, Pigweed ([1]; 500 g ai/ha) | Plant response rating, Foxtail, Green ([7]; 125 g ai/ha) | Plant response rating, Galium ([8]; 125 g ai/ha) | Plant response rating, Bermudagrass ([9]; 16 g ai/ha) | Plant response rating, Bermudagrass ([9]; 31 g ai/ha) | Plant response rating, Bermudagrass ([9]; 62 g ai/ha) | Plant response rating, Bermudagrass ([9]; 125 g ai/ha) | Plant response rating, Crabgrass, Large ([11]; 31 g ai/ha) | Plant response rating, Crabgrass, Large ([11]; 62 g ai/ha) | Plant response rating, Crabgrass, Large ([11]; 125 g ai/ha) | Plant response rating, Cupgrass, Woolly ([12]; 125 g ai/ha) | Plant response rating, Foxtail, Giant ([13]; 62 g ai/ha) | Plant response rating, Foxtail, Giant ([13]; 125 g ai/ha) | Plant response rating, Johnsongrass ([14]; 125 g ai/ha)

CC1(C)CC(S(=O)(=O)Cc2c(C(F)(F)C(F)(F)F)nc3n(c2=O)CCCC3)=NO1 [Compound 21]
70: Plant response rating, Barnyardgrass ([3]; 125 g ai/ha)
98: Plant response rating, Blackgrass ([6]; 125 g ai/ha) | Plant response rating, Crabgrass, Large ([11]; 62 g ai/ha) | Plant response rating, Johnsongrass ([14]; 125 g ai/ha)
100: Plant response rating, Pigweed ([1]; 500 g ai/ha) | Plant response rating, Foxtail, Green ([7]; 62 g ai/ha) | Plant response rating, Foxtail, Green ([7]; 125 g ai/ha) | Plant response rating, Bermudagrass ([9]; 31 g ai/ha) | Plant response rating, Bermudagrass ([9]; 62 g ai/ha) | Plant response rating, Bermudagrass ([9]; 125 g ai/ha) | Plant response rating, Crabgrass, Large ([11]; 125 g ai/ha) | Plant response rating, Cupgrass, Woolly ([12]; 16 g ai/ha) | Plant response rating, Cupgrass, Woolly ([12]; 31 g ai/ha) | Plant response rating, Cupgrass, Woolly ([12]; 62 g ai/ha) | Plant response rating, Cupgrass, Woolly ([12]; 125 g ai/ha) | Plant response rating, Morningglory ([15]; 125 g ai/ha)
90: Plant response rating, Barnyardgrass ([3]; 500 g ai/ha) | Plant response rating, Bermudagrass ([9]; 16 g ai/ha) | Plant response rating, Nightshade ([16]; 125 g ai/ha) | Plant response rating, Nutsedge, Yellow ([17]; 125 g ai/ha)
40: Plant response rating, Blackgrass ([6]; 16 g ai/ha) | Plant response rating, Blackgrass ([6]; 31 g ai/ha) | Plant response rating, Oat, Wild (wild oat (Avena fatua); 125 g ai/ha)
75: Plant response rating, Nightshade ([16]; 62 g ai/ha)
0: Plant response rating, Pigweed ([1]; 125 g ai/ha) | Plant response rating, Velvetleaf ([2]; 125 g ai/ha) | Plant response rating, Wheat ([4]; 125 g ai/ha) | Plant response rating, Corn (corn (Zea mays) [5]; 125 g ai/ha) | Plant response rating, Corn (corn (Zea mays) [5]; 500 g ai/ha) | Plant response rating, Foxtail, Green ([7]; 16 g ai/ha) | Plant response rating, Oat, Wild (wild oat (Avena fatua); 16 g ai/ha) | Plant response rating, Galium ([8]; 16 g ai/ha) | Plant response rating, Galium ([8]; 31 g ai/ha) | Plant response rating, Corn (corn (Zea mays) [10]; 16 g ai/ha) | Plant response rating, Corn (corn (Zea mays) [10]; 31 g ai/ha) | Plant response rating, Corn (corn (Zea mays) [10]; 62 g ai/ha) | Plant response rating, Foxtail, Giant ([13]; 16 g ai/ha) | Plant response rating, Johnsongrass ([14]; 16 g ai/ha) | Plant response rating, Morningglory ([15]; 16 g ai/ha) | Plant response rating, Nutsedge, Yellow ([17]; 16 g ai/ha) | Plant response rating, Sedge, Umbrella ([18]; 62 g ai/ha) | Plant response rating, Sedge, Umbrella ([18]; 250 g ai/ha)
85: Plant response rating, Foxtail, Giant ([13]; 125 g ai/ha)
45: Plant response rating, Foxtail, Green ([7]; 31 g ai/ha)
60: Plant response rating, Velvetleaf ([2]; 500 g ai/ha) | Plant response rating, Foxtail, Giant ([13]; 31 g ai/ha) | Plant response rating, Johnsongrass ([14]; 62 g ai/ha) | Plant response rating, Nutsedge, Yellow ([17]; 62 g ai/ha)
95: Plant response rating, Crabgrass, Large ([11]; 31 g ai/ha)
10: Plant response rating, Corn (corn (Zea mays) [10]; 125 g ai/ha) | Plant response rating, Morningglory ([15]; 31 g ai/ha)
80: Plant response rating, Foxtail, Giant ([13]; 62 g ai/ha) | Plant response rating, Morningglory ([15]; 62 g ai/ha)
20: Plant response rating, Wheat ([4]; 500 g ai/ha) | Plant response rating, Crabgrass, Large ([11]; 16 g ai/ha) | Plant response rating, Nutsedge, Yellow ([17]; 31 g ai/ha)
50: Plant response rating, Blackgrass ([6]; 62 g ai/ha) | Plant response rating, Galium ([8]; 125 g ai/ha) | Plant response rating, Nightshade ([16]; 16 g ai/ha) | Plant response rating, Nightshade ([16]; 31 g ai/ha)
30: Plant response rating, Oat, Wild (wild oat (Avena fatua); 31 g ai/ha) | Plant response rating, Oat, Wild (wild oat (Avena fatua); 62 g ai/ha) | Plant response rating, Galium ([8]; 62 g ai/ha) | Plant response rating, Johnsongrass ([14]; 31 g ai/ha)
